Source: PMC10424179, “Disrupting Kaposi’s Sarcoma-Associated Herpesvirus (KSHV) Latent Replication with a Small Molecule Inhibitor” (Journal of Medicinal Chemistry, 2023)

Columns and labels:
[1] = molecular target: T1, oligomerization-deficient mutant of a LANA C-terminal protein fragment (aa 1008–1146) (Human herpesvirus 8 (Kaposi's sarcoma-associated herpesvirus), UniProt Q76SB0); experiment: Microscale thermophoresis (MST) binding assay; design: species or system Kaposi's sarcoma-associated herpesvirus (KSHV); settings: read-out: KD value (MST); LANA aa 1008–1146 mutant; means of at least three replicates
T1 sequence (Q76SB0 1008-1146): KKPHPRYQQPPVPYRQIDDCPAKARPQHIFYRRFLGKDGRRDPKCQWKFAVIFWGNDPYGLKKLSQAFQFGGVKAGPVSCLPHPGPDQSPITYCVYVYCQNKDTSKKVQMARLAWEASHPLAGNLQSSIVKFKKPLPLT
From the text: (§1) In these assays, an oligomerization-deficient mutant of a LANA C-terminal protein fragment (aa 1008–1146) and an oligonucleotide representing LANA-binding site (LBS) 1 were used, which are convenient to use and handle for the described biophysical methods, while maintaining the essential DNA-binding interface.[25]
Equation y = A2 + (A1-A2)/(1 + (x/x0)^p)
1.3 Microscale Thermophoresis (MST) Assay
Microscale Thermophoresis Assay was done as mentioned in a previous publication. 2

[2] = molecular target: LANA–DNA interaction (oligomerization-deficient LANA DBD aa 1008–1146 mutant / LBS1) (Human herpesvirus 8 (Kaposi's sarcoma-associated herpesvirus), UniProt Q76SB0); experiment: Electrophoretic mobility shift assay (EMSA), LANA DBD mutant with LBS1 oligonucleotide; format: biochemical, Kaposi's sarcoma-associated herpesvirus (KSHV); settings: compound at 250 μM; LBS1 oligonucleotide; LANA aa 1008–1146 mutant
Description: as §1
Equation y = A2 + (A1-A2)/(1 + (x/x0)^p) […]
1.4 Electrophoretic Mobility Shift Assay (EMSA)
The EMSA was carried out with slight modific ations as described previously 2 based on the assay in Hellert et al. (2013). 3 His-tagged oligomerization-deficient LANA DBD (aa1008-1146) mutant protein or LANA DBD (aa934-1162) wild type protein (200 nM final) was incubated with a 5´-Dy682-labeled double stranded DNA probe (IBA Lifesciences) (20 nM final) for 30 minutes at RT in the dark. The reaction buffer consisted of 30 mM Tris HCl pH 7.5, 50 mM KCl, 10 mM MgCl2, 1 mM DTT, 1 mM EDTA, 10% glycerol, 0.25% Tween20, 0.5 mg/mL BSA and 0.05 mg/mL poly(dI-dC). […]
dark. 10 µL of the reaction was run on a pre -run native 5% acrylamide gel for 45 minutes at 100V with tris-borate-EDTA buffer. Images of the gels were acquired and analysed with the Odyssey (Licor) using the Image Studio software.
Fig S2: Gels of EMSA experiments at 250 μM for all compounds (A) and dose-dependent curves for compound 20 using LANA DBD mutant (B) and LANA wildtype (C) as well as LBS1. Values are means […]
Gleichung y = A2 + (A1-A2)/(1 + (x/x0)^p) […]

[3] = Metabolic stability in human liver S9 fraction; format: in vitro ADME; settings: human liver S9, 1 μM compound
Description: (§2) The next step was an in vitro ADMET profiling of the best seven compounds so far: 9, 11, 14, 19, 20, 21, and 27. The compounds were tested for their kinetic solubility (1% DMSO in PBS, pH 7.4), lipophilicity (chromatographic Log D7.4 value), cellular permeability (using Caco-2 cells), and metabolic stability (using mouse and human liver S9 fractions) (see Table 3). […]
(§3) 1.7 Metabolic Stability in Liver S9 Fractions
(§4) For the evaluation of combined phase I and phase II metabolic stability, the compound (1 μM) was incubated with 1 mg/mL pooled mouse liver S9 fraction (Xenotech, Kansas City, USA) or human liver S9 fraction (Corning, USA), 2 mM NADPH, 1 mM UDPGA, 10 mM MgCl 2, 5 mM GSH and 0.1 mM PAPS at 37 °C for 240 min. The metabolic stability of testosterone, verapamil and ketoconazole were determined in parallel to confirm the enzymatic activity of mouse S9 fractions, for human S9 testosterone, diclofenac and propranolol were used. The incubation was stopped after defined time points by precipitation of aliquots of S9 enzymes with 2 volumes of cold acetonitrile containing internal standard (150 nM diphenhydramine). Samples were stored on ice until the end of the incubation and precipitated protein was removed by centrifugation (15 min, 4 °C, 4,000 g). Concentration of the remaining test compound at the different time points was analyzed by HPLC-MS/MS (TSQ Quantum Access MAX, Thermo Fisher, Dreieich, Germany) and used to determine half -life (t1/2). Values are means of three

Caco-2 cell permeability = format: in vitro ADME; settings: human, pH 7.4, Caco-2 monolayer, apical to basolateral
Description: (§5) The next step was an in vitro ADMET profiling of the best seven compounds so far: 9, 11, 14, 19, 20, 21, and 27. The compounds were tested for their kinetic solubility (1% DMSO in PBS, pH 7.4), lipophilicity (chromatographic Log D7.4 value), cellular permeability (using Caco-2 cells), and metabolic stability (using mouse and human liver S9 fractions) (see Table 3).
MTT Assay: Viability of HEK293 cells ~48 hours after treatment […]
Fig S4: MTT assay for compounds 11, 14, 19, 20 and 21 using HEK293 cells. Values are means of […]
Permeability of the compounds was assessed using Caco2 monolayers grown on Transwell® (3460 Costar, Corning). In brief, cells were seeded 60.000 cells/well in 12-well Transwell plates in DMEM medium supplemented with 10% FCS and 1% NEAA. Cells were grown for 7 to 9 days with medium replacement every other day until they reached a tight monolayer. Tightness was defined as transepithelial resistance (TEER) values >300 Ω/cm² (measured using an EVOM Volt-Ohmmeter, World Precision Instruments). At the day of permeability as say, the compound stock solutions in DMSO were diluted to 10µM in Krebs -Ringer-buffer (KRB, pH 7.4). Cells treated with KRB only served as control. Monolayer was washed two times with prewarmed KRB and incubated with 500 µl sample on the apical compartment. Samples from the basolateral side were drawn at t = 0, 15, 30, 60, 120, 180 and 300 min and replaced with fresh buffer. The plates were incubated for 5 h in a cell culture incubator with lateral shaking (200 rpm). TEER values were measured again at the end of the permeability test. Compound concentration was determined with HPLC-ESI-MS/MS in SRM mode and calculated for the cumulative transport. Values are means of three replicates.

[4] = Metabolic stability in mouse liver S9 fraction; format: in vitro ADME; settings: pooled liver S9 fraction, mouse liver S9, 1 μM compound
Description: as §2, §3, §4

Chromatographic LogD7.4 = format: physicochemical; settings: reversed-phase HPLC, NUCLEODUR C18 Pyramid column; pH 7.4, HPLC-MS based; read-out: Chrom. LogD7.4
Description: as §2
LogD7.4 was analyzed using an HPLC−MS based method. The retention time of 12 compounds with known LogD7.4 was determined and plotted toward their LogD7.4. Linear regression was used to determine the LogD7.4 of unknown compounds. Analysis was performed using a Dionex Ultimate 3000 HPLC system coupled to a TSQ Quantum Access MAX (Thermo Fisher, Dreieich, Germany) with the following conditions: EC150/2 NUCLEODUR C18 Pyramid column, 5 μM (Macherey Nagel, Düren, Germany); eluent A: 50 mM NH4OAc pH 7.4, eluent B: acetonitrile, and flow: 0.6 mL/min. The gradient was set to 0−100% B from 0 to 2.5 min, […]
are means of two replicates. […]

Kinetic solubility = format: physicochemical; settings: PBS with 1% DMSO; 1% DMSO in PBS, pH 7.4
Description: as §5
The desired compounds were sequentially diluted in DMSO in a 96-well plate. 1.5 µL of each well were transferred into another 96-well plate and mixed with 148.5 µL of PBS. Plates were shaken for 5 min at 600 rpm at room temperature (r.t.), and the absorbance at 620 nm was measured. Absorbance values were normalized by blank subtraction and plotted using GraphPad Prism 8.4.2 (GraphPad Software, San Diego, CA, USA). Solubility (S) was determined based on the First X value of AUC function using a threshold of 0.005. […]

Structure (SMILES) | Kd [1] [µM] | Inhibition (EMSA, LBS1) @250 μM [2] | other results
Cc1cc(-c2ccc(O)cc2)ncc1-n1cc(-c2ccc(C(=O)O)cc2)nn1 [Compound 23] | 30.9 ± 3 | – | –
Cc1cc(-c2cncnc2)ncc1-n1cc(-c2ccc(C(=O)O)cc2)nn1 [Compound 6] | 13.3 ± 2.5 | 74% | –
COc1ccc(COc2ccc(-c3cc(C)c(-n4cc(-c5ccc(C(=O)O)cc5)nn4)cn3)cc2)cc1 [Compound 36] | 26 ± 3.8 | – | –
Cc1cc(-c2cccnc2)ncc1-n1cc(-c2ccc(C(=O)O)cc2)nn1 [Compound 4] | 81.3 ± 10.5 | – | –
COc1ccc(-c2cc(C)c(-n3cc(-c4ccc(C(=O)O)cc4)nn3)cn2)cc1 [Compound 19] | 5.4 ± 1.8 | 69% | microsomal CLint at 1 µM ([3]; read-out: MetStab Human Liver S9 Clint): < 5.8 µL/min/mg; half-life at 1 µM ([3]; read-out: MetStab Human Liver S9 t1/2): > 120 min; Papp A→B at 5 h, 10 µM (Caco-2 cell permeability): 16.5 ± 4.7 ×10⁻⁶ cm/s; microsomal CLint at 1 µM ([4]; read-out: MetStab Mouse Liver S9 Clint): < 5.8 µL/min/mg; half-life at 1 µM ([4]; read-out: MetStab Mouse Liver S9 t1/2): > 120 min; chromatographic logD (Chromatographic LogD7.4): 0.46; solubility kinetic at 5 min (Kinetic solubility): > 200 µM
COc1cc(COc2cccc(-c3cc(C)c(-n4cc(-c5ccc(C(=O)O)cc5)nn4)cn3)c2)cc(OC)c1 [Compound 33] | 96.7 ± 9 | – | –
COc1ccc(-c2cc(C)c(-n3cc(-c4ccc(C(=O)O)cc4)nn3)cn2)cn1 [Compound 10] | 9.2 ± 2.1 | n.i. (n.i. = no inhibition for inhibition <10%) | –
CNC(=O)c1ccc(-c2cc(C)c(-n3cc(-c4ccc(C(=O)O)cc4)nn3)cn2)cc1 [Compound 25] | 30.9 ± 3.1 | – | –
Cc1cc(-c2cnc3ccccc3c2)ncc1-n1cc(-c2ccc(C(=O)O)cc2)nn1 [Compound 12] | 31 ± 2.5 | – | –
Cc1cc(-c2ccncc2)ncc1-n1cc(-c2ccc(C(=O)O)cc2)nn1 [Compound 5] | 57.5 ± 6.8 | – | –
COc1cccc(-c2cc(C)c(-n3cc(-c4ccc(C(=O)O)cc4)nn3)cn2)c1 [Compound 18] | 9.6 ± 2.8 | n.i. (n.i. = no inhibition for inhibition <10%) | –
CNC(=O)c1cccc(-c2cc(C)c(-n3cc(-c4ccc(C(=O)O)cc4)nn3)cn2)c1 [Compound 24] | 4.3 ± 0.9 | 40% | –
Cc1cc(-c2cccc(Oc3ccccc3)c2)ncc1-n1cc(-c2ccc(C(=O)O)cc2)nn1 [Compound 28] | 71.1 ± 9.3 | – | –
Cc1cc(-c2cccc(C(=O)O)c2)ncc1-n1cc(-c2ccc(C(=O)O)cc2)nn1 [Compound 26] | 12.1 ± 3.7 | n.i. (n.i. = no inhibition for inhibition <10%) | –
COc1ccc(COc2ccccc2-c2cc(C)c(-n3cc(-c4ccc(C(=O)O)cc4)nn3)cn2)cc1 [Compound 35] | 46.1 ± 5.8 | – | –
Cc1cc(-c2cccc(OCc3ccccc3)c2)ncc1-n1cc(-c2ccc(C(=O)O)cc2)nn1 [Compound 29] | 84.8 ± 5.6 | – | –
Cc1cc(-c2ccc(O)nc2)ncc1-n1cc(-c2ccc(C(=O)O)cc2)nn1 [Compound 8] | 13.8 ± 2.7 | 42% | –
COc1cccc(COc2cccc(-c3cc(C)c(-n4cc(-c5ccc(C(=O)O)cc5)nn4)cn3)c2)c1 [Compound 32] | 31.3 ± 3 | – | –
Cc1cc(-c2ccc(Cl)cc2)ncc1-n1cc(-c2ccc(C(=O)O)cc2)nn1 [Compound 16] | 37.7 ± 59.3 | – | –
COc1ccccc1-c1cc(C)c(-n2cc(-c3ccc(C(=O)O)cc3)nn2)cn1 [Compound 17] | 18 ± 2.7 | 38% | –
Cc1cc(-c2cccc(O)c2)ncc1-n1cc(-c2ccc(C(=O)O)cc2)nn1 [Compound 22] | 26.4 ± 3.4 | – | –
Cc1cc(-c2ccccc2)ncc1-n1cc(-c2ccc(C(=O)O)cc2)nn1 [Compound 13] | 7.6 ± 2 | n.i. (n.i. = no inhibition for inhibition <10%) | –
COc1ccc(COc2cccc(-c3cc(C)c(-n4cc(-c5ccc(C(=O)O)cc5)nn4)cn3)c2)cc1 [Compound 34] | 5.3 ± 4 | 31% | –
Cc1cc(-c2cccc(Cl)c2)ncc1-n1cc(-c2ccc(C(=O)O)cc2)nn1 [Compound 15] | 22.1 ± 4.8 | n.i. (n.i. = no inhibition for inhibition <10%) | –
Cc1cc(-c2cccc(OCc3ccccc3Cl)c2)ncc1-n1cc(-c2ccc(C(=O)O)cc2)nn1 [Compound 30] | 159 ± 74 | – | –
COc1ccccc1COc1cccc(-c2cc(C)c(-n3cc(-c4ccc(C(=O)O)cc4)nn3)cn2)c1 [Compound 31] | 30.8 ± 15.9 | – | –
Cc1cc(-c2cncc(O)c2)ncc1-n1cc(-c2ccc(C(=O)O)cc2)nn1 [Compound 7] | 48.3 ± 11.8 | – | –
